Measurements published in PubChem BioAssay (NCI).
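Method: 48-hour compound exposure of cells in 96-well plates, five concentrations, linear interpolation of endpoints. TGI is the concentration that stops growth completely.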

Assays:
Experiment in all cases: DTP human tumour cell line panel, 48 h
OVCAR-3 ovarian = system: OVCAR-3 ovarian
M19-MEL melanoma = system: M19-MEL melanoma
EKVX NSCLC = system: EKVX NSCLC
KM20L2 colon = system: KM20L2 colon
IGROV1 ovarian = system: IGROV1 ovarian
COLO 205 colon = system: COLO 205 colon
LXFL 529 NSCLC = system: LXFL 529 NSCLC
NCI-H23 lung = system: NCI-H23 lung
HCT-116 colon = system: HCT-116 colon
DMS 273 small cell lung = system: DMS 273 small cell lung
SNB-78 CNS = system: SNB-78 CNS
HOP-18 NSCLC = system: HOP-18 NSCLC
786-0 renal = system: 786-0 renal
NCI-H226 lung = system: NCI-H226 lung
HOP-62 NSCLC = system: HOP-62 NSCLC
NCI-H460 lung = system: NCI-H460 lung
RXF 393 renal = system: RXF 393 renal
K-562 leukemia = system: K-562 leukemia
SK-MEL-5 melanoma = system: SK-MEL-5 melanoma
A549 NSCLC = system: A549 NSCLC
SNB-19 CNS = system: SNB-19 CNS
ACHN renal = system: ACHN renal
MOLT-4 leukemia = system: MOLT-4 leukemia
U251 CNS = system: U251 CNS
UO-31 renal = system: UO-31 renal
SK-OV-3 ovarian = system: SK-OV-3 ovarian
RPMI-8226 leukemia = system: RPMI-8226 leukemia
M14 melanoma = system: M14 melanoma
LOX IMVI melanoma = system: LOX IMVI melanoma
CAKI-1 renal = system: CAKI-1 renal
HT29 colon = system: HT29 colon
A498 renal = system: A498 renal
SF-539 CNS = system: SF-539 CNS
SK-MEL-2 melanoma = system: SK-MEL-2 melanoma
SF-295 CNS = system: SF-295 CNS
HOP-92 NSCLC = system: HOP-92 NSCLC
SR leukemia = system: SR leukemia
MALME-3M melanoma = system: MALME-3M melanoma
OVCAR-5 ovarian = system: OVCAR-5 ovarian
HCT-15 colon = system: HCT-15 colon
OVCAR-8 ovarian = system: OVCAR-8 ovarian
DMS 114 small cell lung = system: DMS 114 small cell lung
SW-620 colon = system: SW-620 colon
KM12 colon = system: KM12 colon
HCC-2998 colon = system: HCC-2998 colon
DLD-1 colon = system: DLD-1 colon
UACC-257 melanoma = system: UACC-257 melanoma
CCRF-CEM leukemia = system: CCRF-CEM leukemia
SK-MEL-28 melanoma = system: SK-MEL-28 melanoma
TK-10 renal = system: TK-10 renal
SNB-75 CNS = system: SNB-75 CNS
NCI-H522 lung = system: NCI-H522 lung
SN12C renal = system: SN12C renal
OVCAR-4 ovarian = system: OVCAR-4 ovarian
UACC-62 melanoma = system: UACC-62 melanoma
HL-60(TB) leukemia = system: HL-60(TB) leukemia
SF-268 CNS = system: SF-268 CNS
XF 498 CNS = system: XF 498 CNS

Cc1cc(/C=C/c2cc[n+](C)c3ccccc23)c(O)c2ncccc12
TGI (OVCAR-3 ovarian): 3.97 µM
TGI (M19-MEL melanoma): 8.52 µM
TGI (EKVX NSCLC): 20 µM
TGI (KM20L2 colon): 20 µM
TGI (IGROV1 ovarian): 8.39 µM
TGI (COLO 205 colon): 23.3 µM
TGI (LXFL 529 NSCLC): 16 µM
TGI (NCI-H23 lung): 4.86 µM
TGI (HCT-116 colon): 7.34 µM
TGI (DMS 273 small cell lung): 10.4 µM
TGI (SNB-78 CNS): 27.1 µM
TGI (HOP-18 NSCLC): 11.9 µM
TGI (786-0 renal): 14.3 µM
TGI (NCI-H226 lung): 7.14 µM
TGI (HOP-62 NSCLC): 15 µM
TGI (NCI-H460 lung): 16.7 µM
TGI (RXF 393 renal): 9.83 µM
TGI (K-562 leukemia): 13.7 µM
TGI (SK-MEL-5 melanoma): 4.98 µM
TGI (A549 NSCLC): 19.1 µM
TGI (SNB-19 CNS): 20.8 µM
TGI (ACHN renal): 16.4 µM
TGI (MOLT-4 leukemia): 7.47 µM
TGI (U251 CNS): 13.5 µM
TGI (UO-31 renal): 21.3 µM
TGI (SK-OV-3 ovarian): 13 µM
TGI (RPMI-8226 leukemia): 6.41 µM
TGI (M14 melanoma): 4.51 µM
TGI (LOX IMVI melanoma): 12.3 µM
TGI (CAKI-1 renal): 27.6 µM
TGI (HT29 colon): 14.6 µM
TGI (A498 renal): 15.5 µM
TGI (SF-539 CNS): 1.99 µM
TGI (SK-MEL-2 melanoma): 18.8 µM
TGI (SF-295 CNS): 15.5 µM
TGI (HOP-92 NSCLC): 17 µM
TGI (SR leukemia): 4.3 µM
TGI (MALME-3M melanoma): 12.4 µM
TGI (OVCAR-5 ovarian): 16 µM
TGI (HCT-15 colon): 49.8 µM
TGI (OVCAR-8 ovarian): 16.1 µM
TGI (DMS 114 small cell lung): 1.8 µM
TGI (SW-620 colon): 19.3 µM
TGI (KM12 colon): 18.6 µM
TGI (HCC-2998 colon): 14.5 µM
TGI (DLD-1 colon): 22.5 µM
TGI (UACC-257 melanoma): 13.5 µM
TGI (CCRF-CEM leukemia): > 37.7 µM
TGI (SK-MEL-28 melanoma): 13.6 µM
TGI (TK-10 renal): 17.5 µM
TGI (SNB-75 CNS): 24 µM
TGI (NCI-H522 lung): 11.6 µM
TGI (SN12C renal): 16 µM
TGI (OVCAR-4 ovarian): 32.4 µM
TGI (UACC-62 melanoma): 9.19 µM
TGI (HL-60(TB) leukemia): > 26.9 µM
TGI (SF-268 CNS): 11 µM

COc1ccc(/C(Cl)=C(\C=N/O)c2ccc(OC)c(OC)c2)cc1OC
TGI (OVCAR-3 ovarian): > 100 µM
TGI (M19-MEL melanoma): > 100 µM
TGI (EKVX NSCLC): > 100 µM
TGI (KM20L2 colon): > 100 µM
TGI (IGROV1 ovarian): > 100 µM
TGI (COLO 205 colon): > 100 µM
TGI (LXFL 529 NSCLC): > 100 µM
TGI (NCI-H23 lung): > 100 µM
TGI (HCT-116 colon): > 100 µM
TGI (XF 498 CNS): > 100 µM
TGI (DMS 273 small cell lung): > 100 µM
TGI (SNB-78 CNS): > 100 µM
TGI (HOP-18 NSCLC): > 100 µM
TGI (786-0 renal): > 100 µM
TGI (NCI-H226 lung): > 100 µM
TGI (HOP-62 NSCLC): > 100 µM
TGI (NCI-H460 lung): > 100 µM
TGI (RXF 393 renal): > 100 µM
TGI (K-562 leukemia): > 100 µM
TGI (SK-MEL-5 melanoma): > 100 µM
TGI (A549 NSCLC): > 100 µM
TGI (SNB-19 CNS): > 100 µM
TGI (ACHN renal): > 100 µM
TGI (MOLT-4 leukemia): > 100 µM
TGI (U251 CNS): > 100 µM
TGI (UO-31 renal): > 100 µM
TGI (SK-OV-3 ovarian): > 100 µM
TGI (RPMI-8226 leukemia): > 100 µM
TGI (M14 melanoma): > 100 µM
TGI (LOX IMVI melanoma): > 100 µM
TGI (CAKI-1 renal): > 100 µM
TGI (HT29 colon): > 100 µM
TGI (A498 renal): > 100 µM
TGI (SF-539 CNS): > 100 µM
TGI (SK-MEL-2 melanoma): > 100 µM
TGI (SF-295 CNS): > 100 µM
TGI (HOP-92 NSCLC): > 100 µM
TGI (SR leukemia): > 100 µM
TGI (MALME-3M melanoma): > 100 µM
TGI (OVCAR-5 ovarian): > 100 µM
TGI (HCT-15 colon): > 100 µM
TGI (OVCAR-8 ovarian): > 100 µM
TGI (DMS 114 small cell lung): > 100 µM
TGI (SW-620 colon): > 100 µM
TGI (KM12 colon): > 100 µM
TGI (HCC-2998 colon): > 100 µM
TGI (DLD-1 colon): > 100 µM
TGI (UACC-257 melanoma): > 100 µM
TGI (CCRF-CEM leukemia): > 100 µM
TGI (SK-MEL-28 melanoma): > 100 µM
TGI (TK-10 renal): > 100 µM
TGI (SNB-75 CNS): > 100 µM
TGI (NCI-H522 lung): > 100 µM
TGI (SN12C renal): > 100 µM
TGI (OVCAR-4 ovarian): > 100 µM
TGI (UACC-62 melanoma): > 100 µM
TGI (HL-60(TB) leukemia): > 100 µM
TGI (SF-268 CNS): > 100 µM

O=C(CCN1CCN(c2ccccc2)CC1)N1CCc2c([nH]c3ccccc23)C1c1cccnc1 (stereo not drawn)
TGI (OVCAR-3 ovarian): 30.7 µM
TGI (M19-MEL melanoma): 37.1 µM
TGI (EKVX NSCLC): 34.7 µM
TGI (KM20L2 colon): 29.5 µM
TGI (IGROV1 ovarian): > 100 µM
TGI (COLO 205 colon): 26.7 µM
TGI (LXFL 529 NSCLC): 31.6 µM
TGI (NCI-H23 lung): 57.7 µM
TGI (HCT-116 colon): 28.1 µM
TGI (DMS 273 small cell lung): 32.3 µM
TGI (SNB-78 CNS): 37 µM
TGI (HOP-18 NSCLC): 36.1 µM
TGI (786-0 renal): 29.5 µM
TGI (NCI-H226 lung): 71.9 µM
TGI (HOP-62 NSCLC): 40.4 µM
TGI (NCI-H460 lung): 34.4 µM
TGI (RXF 393 renal): 61 µM
TGI (K-562 leukemia): 45 µM
TGI (SK-MEL-5 melanoma): 28.9 µM
TGI (A549 NSCLC): 29.7 µM
TGI (SNB-19 CNS): 66.7 µM
TGI (ACHN renal): 40 µM
TGI (MOLT-4 leukemia): 51.1 µM
TGI (U251 CNS): 30 µM
TGI (UO-31 renal): 26.1 µM
TGI (SK-OV-3 ovarian): 33.7 µM
TGI (M14 melanoma): 31.2 µM
TGI (LOX IMVI melanoma): 30.6 µM
TGI (CAKI-1 renal): 33.5 µM
TGI (HT29 colon): 29 µM
TGI (A498 renal): 37.7 µM
TGI (SF-539 CNS): 35.4 µM
TGI (SK-MEL-2 melanoma): 30.4 µM
TGI (HOP-92 NSCLC): 37.7 µM
TGI (SR leukemia): 59 µM
TGI (MALME-3M melanoma): 39.2 µM
TGI (OVCAR-5 ovarian): 34.6 µM
TGI (HCT-15 colon): 30.9 µM
TGI (OVCAR-8 ovarian): 30.4 µM
TGI (DMS 114 small cell lung): 27 µM
TGI (SW-620 colon): 32.7 µM
TGI (KM12 colon): 36.7 µM
TGI (HCC-2998 colon): 36.1 µM
TGI (DLD-1 colon): 36.2 µM
TGI (UACC-257 melanoma): 31.5 µM
TGI (CCRF-CEM leukemia): 69.7 µM
TGI (SK-MEL-28 melanoma): 29.1 µM
TGI (TK-10 renal): 18.8 µM
TGI (SNB-75 CNS): 53.3 µM
TGI (NCI-H522 lung): 30 µM
TGI (SN12C renal): 29.6 µM
TGI (OVCAR-4 ovarian): 33 µM
TGI (HL-60(TB) leukemia): 33.6 µM
